Data from US12364429B2, “Compositions and methods for a universal clinical test for olfactory dysfunction” (The Rockefeller University, priority 2017, dated 2025).

Test system: trigeminal system
Test: Lateralization task (odorant applied into only one nostril)
Format: in vivo, human
Conditions: pure concentration; number of correct tasks out of 20; eucalyptol 4 trials, vanillin 6 trials
Source text: SMELL-S and SMELL-R were created with four different mixtures of 30 molecules drawn from a panel of 109 monomolecular, intensity-matched chemicals. These odorants were selected from stimuli utilized in previous psychophysical studies (21, 38). We used only molecules that minimally activated the trigeminal system, because such stimuli can be detected by anosmic subjects (39, 40). A characteristic of trigeminal activation by a molecule is a fresh, cold, burning, eucalyptus, pungent, or tickling sensation. We used a lateralization task in which an odorant is applied into only one nostril to assign a lateralization score to each molecule. It is possible to localize the stimulated nostril if it activates the trigeminal system. In contrast, it is much harder to localize an olfactory stimulus (41). Lateralization tasks were self-administered by one investigator. Two disposable squeeze bottles were placed in a device facilitating simultaneous squeezing and stimuli delivery in each nostril. Only one bottle was filled with an odor stimulus. The tip of each bottle was fitted with a foam piece that conformed to the investigator's nostril, and placed at the entrance of each nostril. The investigator squeezed both bottles simultaneously and attempted to localize which nostril had received the stimulus. After each task, the device was spun on a rotating platform to randomize the odor-stimulus side. […]

Compound	lateralization score (median)
CC12CCC(CC1)C(C)(C)O2 [eucalyptol]	20
COc1cc(C=O)ccc1O [vanillin]	6.5
